Values of other authors in article PMC9851200, “Multiparameter phenotypic screening for endogenous TFEB and TFE3 translocation identifies novel chemical series modulating lysosome function” (Autophagy, 2022).

Tests used:
Design in all cases: method as in original PKIS2 published data
[1] = molecular target: T1, kinases (KINOMEscan panel) (Homo sapiens, UniProt Q13237); details: PRKG2; Published KINOMEscan; ref original PKIS2 published data; cited from earlier work
T1 sequence (Q13237 1-762): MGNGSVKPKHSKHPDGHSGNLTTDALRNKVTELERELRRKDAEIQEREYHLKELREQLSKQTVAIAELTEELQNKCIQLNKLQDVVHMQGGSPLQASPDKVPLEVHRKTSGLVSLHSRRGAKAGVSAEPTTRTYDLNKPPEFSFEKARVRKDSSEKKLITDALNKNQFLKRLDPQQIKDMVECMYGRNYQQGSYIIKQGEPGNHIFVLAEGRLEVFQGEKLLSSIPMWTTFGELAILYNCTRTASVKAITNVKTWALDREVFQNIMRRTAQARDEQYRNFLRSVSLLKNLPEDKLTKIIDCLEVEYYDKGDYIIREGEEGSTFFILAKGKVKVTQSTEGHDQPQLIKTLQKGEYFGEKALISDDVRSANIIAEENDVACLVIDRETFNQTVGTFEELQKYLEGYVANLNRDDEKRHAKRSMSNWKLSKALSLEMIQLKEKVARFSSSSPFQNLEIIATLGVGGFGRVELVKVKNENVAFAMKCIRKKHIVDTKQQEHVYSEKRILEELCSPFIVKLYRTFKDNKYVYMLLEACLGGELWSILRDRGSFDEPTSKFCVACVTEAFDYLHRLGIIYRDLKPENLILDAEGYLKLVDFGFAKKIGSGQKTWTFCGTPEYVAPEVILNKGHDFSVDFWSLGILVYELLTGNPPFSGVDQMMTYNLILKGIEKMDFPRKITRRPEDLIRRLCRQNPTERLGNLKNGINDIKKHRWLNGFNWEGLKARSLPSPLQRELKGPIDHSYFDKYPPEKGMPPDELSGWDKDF

[2] = molecular target: kinases (KINOMEscan panel) (Homo sapiens, UniProt Q9BUB5); details: Published KINOMEscan; ref original PKIS2 published data; cited from earlier work
Sequence of kinases (KINOMEscan panel) (Homo sapiens, UniProt Q9BUB5) (Q9BUB5 whole entry): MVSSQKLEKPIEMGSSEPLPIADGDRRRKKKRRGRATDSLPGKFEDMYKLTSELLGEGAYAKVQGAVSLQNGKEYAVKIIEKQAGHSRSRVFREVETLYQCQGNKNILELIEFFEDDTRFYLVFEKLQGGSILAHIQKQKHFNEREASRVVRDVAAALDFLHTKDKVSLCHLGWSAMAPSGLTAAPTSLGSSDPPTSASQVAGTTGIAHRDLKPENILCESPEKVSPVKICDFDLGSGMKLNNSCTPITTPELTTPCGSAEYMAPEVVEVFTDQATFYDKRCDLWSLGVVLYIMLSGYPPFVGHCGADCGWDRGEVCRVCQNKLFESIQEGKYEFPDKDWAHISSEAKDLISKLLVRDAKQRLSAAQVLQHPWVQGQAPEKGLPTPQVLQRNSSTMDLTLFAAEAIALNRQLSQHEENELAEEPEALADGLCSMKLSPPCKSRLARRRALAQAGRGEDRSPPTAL

[3] = molecular target: T2, kinases (KINOMEscan panel) (Homo sapiens, UniProt O14976); details: kinase GAK; Published KINOMEscan; ref original PKIS2 published data; cited from earlier work
T2 sequence (O14976 1-1311): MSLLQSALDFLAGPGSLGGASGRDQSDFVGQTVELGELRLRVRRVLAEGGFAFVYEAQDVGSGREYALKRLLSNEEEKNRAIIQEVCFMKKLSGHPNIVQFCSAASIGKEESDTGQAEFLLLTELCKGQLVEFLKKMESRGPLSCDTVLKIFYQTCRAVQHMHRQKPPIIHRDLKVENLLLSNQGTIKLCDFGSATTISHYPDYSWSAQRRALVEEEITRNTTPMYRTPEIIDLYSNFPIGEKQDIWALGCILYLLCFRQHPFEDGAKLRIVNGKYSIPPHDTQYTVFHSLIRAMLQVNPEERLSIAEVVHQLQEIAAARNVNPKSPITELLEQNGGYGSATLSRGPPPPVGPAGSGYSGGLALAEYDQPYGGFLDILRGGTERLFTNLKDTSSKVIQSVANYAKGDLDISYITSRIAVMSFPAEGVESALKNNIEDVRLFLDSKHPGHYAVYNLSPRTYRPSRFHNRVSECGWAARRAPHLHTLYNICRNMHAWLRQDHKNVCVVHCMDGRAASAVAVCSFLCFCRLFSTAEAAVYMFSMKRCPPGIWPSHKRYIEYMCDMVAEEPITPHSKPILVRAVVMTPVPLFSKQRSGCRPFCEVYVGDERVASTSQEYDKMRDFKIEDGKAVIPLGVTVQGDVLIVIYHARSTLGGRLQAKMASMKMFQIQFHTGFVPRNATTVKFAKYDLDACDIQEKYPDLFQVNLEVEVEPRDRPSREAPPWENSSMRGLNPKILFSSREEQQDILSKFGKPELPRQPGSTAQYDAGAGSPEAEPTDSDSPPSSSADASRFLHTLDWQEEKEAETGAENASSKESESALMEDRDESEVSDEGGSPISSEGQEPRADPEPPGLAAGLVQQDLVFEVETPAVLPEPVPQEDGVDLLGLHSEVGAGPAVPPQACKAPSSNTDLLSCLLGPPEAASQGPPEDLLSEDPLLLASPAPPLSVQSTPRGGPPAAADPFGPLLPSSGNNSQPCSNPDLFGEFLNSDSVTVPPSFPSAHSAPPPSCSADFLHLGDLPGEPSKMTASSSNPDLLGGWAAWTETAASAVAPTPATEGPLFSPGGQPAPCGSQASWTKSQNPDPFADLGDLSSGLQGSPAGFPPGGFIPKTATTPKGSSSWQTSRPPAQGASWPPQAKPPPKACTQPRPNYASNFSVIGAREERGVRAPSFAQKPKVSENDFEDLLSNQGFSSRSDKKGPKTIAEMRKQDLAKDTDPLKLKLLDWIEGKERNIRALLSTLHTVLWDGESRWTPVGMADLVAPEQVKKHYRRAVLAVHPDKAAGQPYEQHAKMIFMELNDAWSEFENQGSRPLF

[4] = molecular target: kinases (KINOMEscan panel) (Homo sapiens, UniProt O96017); details: kinase CHEK2; Published KINOMEscan; ref original PKIS2 published data; cited from earlier work
Sequence of kinases (KINOMEscan panel) (Homo sapiens, UniProt O96017) (O96017 whole entry): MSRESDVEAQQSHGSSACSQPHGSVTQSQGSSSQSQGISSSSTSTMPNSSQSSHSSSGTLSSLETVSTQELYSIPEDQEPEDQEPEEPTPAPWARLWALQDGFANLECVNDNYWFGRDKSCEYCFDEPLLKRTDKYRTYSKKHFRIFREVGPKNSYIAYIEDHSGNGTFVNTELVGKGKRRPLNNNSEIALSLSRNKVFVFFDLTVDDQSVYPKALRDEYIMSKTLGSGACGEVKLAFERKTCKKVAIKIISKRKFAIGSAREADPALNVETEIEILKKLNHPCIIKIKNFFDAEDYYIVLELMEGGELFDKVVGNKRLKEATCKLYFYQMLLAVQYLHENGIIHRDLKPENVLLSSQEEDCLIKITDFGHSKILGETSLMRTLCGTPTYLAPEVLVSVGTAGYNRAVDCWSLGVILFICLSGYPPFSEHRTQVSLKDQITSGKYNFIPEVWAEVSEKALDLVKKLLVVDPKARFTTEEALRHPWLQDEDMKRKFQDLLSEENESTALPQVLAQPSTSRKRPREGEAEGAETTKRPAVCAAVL

[5] = molecular target: kinases (KINOMEscan panel) (Homo sapiens, UniProt P42684); details: ABL2; Published KINOMEscan; ref original PKIS2 published data; cited from earlier work
Sequence of kinases (KINOMEscan panel) (Homo sapiens, UniProt P42684) (P42684 whole entry): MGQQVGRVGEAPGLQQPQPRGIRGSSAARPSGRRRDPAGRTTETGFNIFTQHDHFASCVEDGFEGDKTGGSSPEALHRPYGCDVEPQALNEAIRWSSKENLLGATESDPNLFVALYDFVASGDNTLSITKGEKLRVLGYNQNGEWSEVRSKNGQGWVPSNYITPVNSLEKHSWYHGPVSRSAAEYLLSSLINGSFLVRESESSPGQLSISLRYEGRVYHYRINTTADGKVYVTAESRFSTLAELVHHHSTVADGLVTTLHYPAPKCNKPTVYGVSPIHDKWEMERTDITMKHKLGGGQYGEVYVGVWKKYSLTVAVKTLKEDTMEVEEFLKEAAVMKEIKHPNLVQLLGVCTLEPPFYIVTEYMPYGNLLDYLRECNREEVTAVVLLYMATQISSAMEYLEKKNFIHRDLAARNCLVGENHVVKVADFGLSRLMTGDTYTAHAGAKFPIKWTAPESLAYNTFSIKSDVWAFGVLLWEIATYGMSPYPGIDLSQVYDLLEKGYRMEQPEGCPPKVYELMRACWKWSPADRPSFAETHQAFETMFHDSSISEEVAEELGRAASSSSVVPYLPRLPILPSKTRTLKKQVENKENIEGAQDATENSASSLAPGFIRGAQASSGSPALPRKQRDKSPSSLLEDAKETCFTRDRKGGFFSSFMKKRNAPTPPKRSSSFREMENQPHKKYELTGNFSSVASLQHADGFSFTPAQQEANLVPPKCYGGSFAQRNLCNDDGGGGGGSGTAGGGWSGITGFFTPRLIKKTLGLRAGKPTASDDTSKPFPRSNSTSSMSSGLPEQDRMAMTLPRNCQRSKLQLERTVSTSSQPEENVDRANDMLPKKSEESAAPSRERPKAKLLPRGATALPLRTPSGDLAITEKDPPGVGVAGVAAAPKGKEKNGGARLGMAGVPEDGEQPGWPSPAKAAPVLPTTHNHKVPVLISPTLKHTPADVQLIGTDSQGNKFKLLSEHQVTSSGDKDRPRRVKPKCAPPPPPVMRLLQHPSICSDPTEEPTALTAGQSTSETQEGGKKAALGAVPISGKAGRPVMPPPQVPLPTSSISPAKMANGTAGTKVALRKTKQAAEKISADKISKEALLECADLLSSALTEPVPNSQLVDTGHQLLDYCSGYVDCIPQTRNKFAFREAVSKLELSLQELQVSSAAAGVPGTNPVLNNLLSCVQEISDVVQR

Cc1cccc(-c2nc(Nc3ccncc3)c3ccccc3n2)n1 [NK215]
KINOMEscan PRKG2 [1]: 0
KINOMEscan MKNK1 [2]: 0
KINOMEscan GAK [3]: 0
KINOMEscan CHEK2 [4]: 0
KINOMEscan ABL2 [5]: 22
